# Numbers after ± are expanded uncertainties.
# Columns and labels:
# [1] = Crystal; DTA
# [2] = Molar enthalpy of transition or fusion; details: Crystal; DSC
Normal melting temperature [1],Molar enthalpy of transition or fusion [2],Structure (SMILES)
170.22 ± 0.41 °C,19.1 ± 0.382 kcal/mol,CC(C)NCC(O)c1ccc(O)c(O)c1.Cl (stereo unspecified)
179.54 ± 0.41 °C,18.5 ± 0.382 kcal/mol,C[C@H](N)[C@H](O)c1cccc(O)c1.O=C(O)[C@H](O)[C@@H](O)C(=O)O

Structure (SMILES),Normal melting temperature [1],Molar enthalpy of transition or fusion [2]
CNCC(O)c1ccc(O)cc1 (stereo unspecified) [synephrine],190.38 ± 0.41 °C,23.8 ± 0.478 kcal/mol

# From the NIST ThermoML archive (doi:10.1016/j.fluid.2015.07.037)
